From patent US20230096051A1, “CGRP ANTIGONISTS USEFUL AS TRACER COMPOUNDS FOR POSITRON EMISSION TOMOGRAPHY” (Eli Lilly and Company, priority 2019, published 2023)

Biological target: T1, human CGRP receptor heterodimer (Homo sapiens, UniProt O60894+Q16602)
T1 construct: Human SK-N-MC neuroblastoma cells, endogenously expressing the human CGRP receptor, are expanded in culture flasks; host or cells: P2 membranes of SK-N-MC neuroblastoma cells
Assay: Competition filtration binding with [3H]BIBN-4096 on SK-N-MC cell membranes
Conditions: [3H]BIBN-4096 130 pM, mean
Text: The equilibrium affinity constant (Ki) at the human CGRP receptor heterodimer may be determined using standard competition filtration binding methods with membranes prepared from cultured SK-N-MC neuroblastoma cells (ATCC) and a high-affinity CGRP receptor antagonist.
Membrane Production: Human SK-N-MC neuroblastoma cells, endogenously expressing the human CGRP receptor, are expanded in culture flasks (Corning, T225) using growth media containing Eagles's Minimum Essential Media (HyClone™) supplemented with 10% heat-inactivated fetal bovine serum (GIBCO®). When cell monolayers achieve a level of 70-80% confluence, they are dissociated from the culture flasks using TrypLE™ cell dissociation media (ThermoFisher Scientific). Dissociated cells are pelleted by centrifugation at 300×g to remove the growth and dissociation media. Centrifuged cell pellets are flash frozen in liquid nitrogen (−320° F.) for 30 sec and stored frozen at −80° C. until the subsequent membrane preparation.
A membrane preparation P2 pellet (second pellet from centrifugation procedure) is generated from harvested SK-N-MC frozen cultured cell pellets by diluting these cells on ice into 20 mM Tris-HCl buffer, pH 7.4, containing protease inhibitors (Pierce). Suspended cells are Dounce homogenized on ice and centrifuged at low speed (1000×g for 20 min at 4° C.) to remove cellular organelles and debris (P1 pellet). The supernatant, containing the soluble membrane fraction, is collected and subjected to a high speed centrifugation step (25,000×g for 1 hr at 4° C.) to isolate the resultant P2 membrane pellet. […] Protein concentration is determined using the Bradford Protein Assay (ThermoFisher Scientific). […]
Data Analysis: Bound radioactivity may be counted using a MicroBeta® Trilux Scintillation Counter (PerkinElmer®). […] Relative IC50 values are calculated using a four-parameter logistic curve fitting program (GraphPad Prism v8.3.0). Equilibrium dissociation binding constants (Ki) for the compounds are calculated from the following equation: […]

Work on `Cc1cc(N2CCC2)cc(OCc2ccc([C@@H](C)[C@@]3(C)C(=O)NC[C@@H]3CF)cc2)n1` [Example 1, (3R,4R)-3-[(1R)-1-[4-[[4-(azetidin-1-yl)-6-methyl-2-pyridyl]oxymethyl]phenyl]ethyl]-4-(fluoromethyl)-3-methyl-pyrrolidin-2-one] yielded a Ki of 0.35 nM.

With `Cc1cc(N2CC(F)C2)cc(OCc2ccc([C@@H](C)[C@@]3(C)C(=O)NC[C@@H]3CF)cc2)n1` [Example 3, (3R,4R)-3-[(1R)-1-[4-[[4-(3-fluoroazetidin-1-yl)-6-methyl-2-pyridyl]oxymethyl]phenyl]ethyl]-4-(fluoromethyl)-3-methyl-pyrrolidin-2-one] the Ki was 0.93 nM.

In the case of `Cc1cc(N2CC(F)C2)cc(OCc2ccc([C@@H](C)[C@@]3(C)C(=O)NC[C@@H]3C)cc2)n1` [Example 2, (3R,4R)-3-[(1R)-1-[4-[[4-(3-fluoroazetidin-1-yl)-6-methyl-2-pyridyl]oxymethyl]phenyl]ethyl]-3,4-dimethyl-pyrrolidin-2-one], the Ki is reported as 0.98 nM.
